Laboratory results taken from US12358915B2, “METTL3 inhibitory compounds” (STORM THERAPEUTICS LTD., priority 2019, dated 2025).
pIC50: −log10 of the molar value. Where a name gives a salt, the structure may show the parent alone.

biological target: T1, METTL3/14 (Homo sapiens, UniProt Q86U44); test: METTL3/14 methyltransferase assay (METTL3_14 RFMS, RapidFire mass spectrometry); type: biochemical; details: 5 nM METTL3/14, 0.2 μM RNA substrate, 0.5 μM SAM; lower limit of the assay IC50=5 nM; Compounds 1-62; read-out: METTL3_14 RFMS IC50;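 note: recombinant His-tagged METTL3 with FLAG-tagged METTL14 from baculovirus, SAH product quantified by mass spectrometry against isotope-labelled internal standards, 60 min at room temperature, scaled between no-RNA and DMSO-only wells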
T1 construct: The enzyme used was full-length his-tagged METTL3; His; made in house
T1 sequence (Q86U44 whole entry): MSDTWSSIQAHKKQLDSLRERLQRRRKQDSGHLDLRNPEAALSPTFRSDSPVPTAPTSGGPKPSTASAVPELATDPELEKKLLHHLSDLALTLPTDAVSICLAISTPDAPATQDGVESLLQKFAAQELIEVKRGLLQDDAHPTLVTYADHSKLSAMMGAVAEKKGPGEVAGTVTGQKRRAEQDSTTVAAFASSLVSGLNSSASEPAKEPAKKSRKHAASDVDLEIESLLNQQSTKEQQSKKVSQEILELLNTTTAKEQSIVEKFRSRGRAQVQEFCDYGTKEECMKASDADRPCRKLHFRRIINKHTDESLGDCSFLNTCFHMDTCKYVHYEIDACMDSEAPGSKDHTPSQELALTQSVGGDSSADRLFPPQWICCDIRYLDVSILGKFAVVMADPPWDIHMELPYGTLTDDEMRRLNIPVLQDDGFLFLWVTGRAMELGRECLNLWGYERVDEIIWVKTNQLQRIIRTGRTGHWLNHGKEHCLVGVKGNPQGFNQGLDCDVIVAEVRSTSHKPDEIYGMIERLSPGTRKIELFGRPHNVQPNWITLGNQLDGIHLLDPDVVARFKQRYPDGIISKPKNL
T1 sequence (Q9HCE5 whole entry partner): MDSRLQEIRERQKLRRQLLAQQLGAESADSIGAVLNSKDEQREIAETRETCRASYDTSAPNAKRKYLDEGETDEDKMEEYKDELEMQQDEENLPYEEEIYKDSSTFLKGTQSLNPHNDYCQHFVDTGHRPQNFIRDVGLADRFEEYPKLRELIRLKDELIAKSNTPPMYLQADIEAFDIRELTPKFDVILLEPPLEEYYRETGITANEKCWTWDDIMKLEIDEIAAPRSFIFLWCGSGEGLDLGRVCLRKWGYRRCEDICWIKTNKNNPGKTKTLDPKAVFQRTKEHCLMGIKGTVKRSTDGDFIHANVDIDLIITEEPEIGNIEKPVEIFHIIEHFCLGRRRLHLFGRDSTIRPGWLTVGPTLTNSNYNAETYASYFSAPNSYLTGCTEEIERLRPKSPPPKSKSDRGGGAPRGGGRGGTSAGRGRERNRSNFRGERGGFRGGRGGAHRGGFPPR
Protocol: The enzyme used was full-length his-tagged METTL3 co-expressed with full length FLAG-tagged METTL14 in a baculovirus expression system. […] After termination, plates were sealed, centrifuged and stored at 4° C. until analysis. […] Mass Spectrometry Analysis RNA methyltransferase activity was measured label free using the RapidFireTM mass spectrometry (RF/MS) platform. Stopped and stable assay plates were analyzed on the Agilent RF300 integrated autosampler/solid-phase extraction (SPE) system coupled to an ABSciex 4000 mass spectrometer for the generation of the product S-adenosyl homocysteine (SAH) and normalized to the ratio of signal of the two internal product standards, respectively. Solvent A was water containing 0.1% (v/v) TCA. Solvent B was acetonitrile/0.1% ammonium acetate (8:2, v/v). More specifically, plates were centrifuged at 4350 rpm for 10 min, samples were aspirated under vacuum for 600 ms, then loaded onto a C18 solid-phase extraction cartridge and washed for 3 s with solvent A at a flow rate of 1.5 mL/min. Retained product and internal standards were eluted with solvent B at a flow rate of 1 mL/min for 3 s and finally the cartridge was reequilibrated with solvent A for 500 ms.

Row | SMILES | pIC50
1 | Cc1ccc2nc(CNC(=O)c3ccc4[nH]ncc4c3)cn2c1 [Compound 20, N-({6-methylimidazo[1,2-a]pyridin-2-yl}methyl)-1H-indazole-5-carboxamide] | 5.08
2 | Cc1ccc2nc(CNC(=O)c3cc(Br)cc4[nH]ncc34)cn2c1 [Compound 10, 6-bromo-N-({6-methylimidazo[1,2-a]pyridin-2-yl}methyl)-1H-indazole-4-carboxamide] | 5.79
3 | O=C(NCc1cn2cc(Cl)ccc2n1)c1cccc2[nH]ncc12 [Compound 4, N-({6-chloroimidazo[1,2-a]pyridin-2-yl}methyl)-1H-indazole-4-carboxamide] | 5.22
4 | O=C(NCc1cn2cc(C3CC3)ccc2n1)c1cc(=O)n2ccccc2n1 [Compound 59, N-({6-cyclopropylimidazo[1,2-a]pyridin-2-yl}methyl)-4-oxo-4H-pyrido[1,2-a]pyrimidine-2-carboxamide] | 6.03
5 | C=Cc1ccc2nc(CNC(=O)c3cc(=O)n4ccccc4n3)cn2c1 [Compound 58, N-({6-ethenylimidazo[1,2-a]pyridin-2-yl}methyl)-4-oxo-4H-pyrido[1,2-a]pyrimidine-2-carboxamide] | 6.52
6 | N#Cc1ccc2nc(CNC(=O)c3cc(=O)n4ccccc4n3)cn2c1 [Compound 18, N-({6-cyanoimidazo[1,2-a]pyridin-2-yl}methyl)-4-oxo-4H-pyrido[1,2-a]pyrimidine-2-carboxamide] | 5.73
7 | CC(=O)NCc1ccc2nc(CNC(=O)c3cccc4[nH]ncc34)cn2c1 [Compound 40, N-{[6-(acetamidomethyl)imidazo[1,2-a]pyridin-2-yl]methyl}-1H-indazole-4-carboxamide] | 5.13
8 | O=C(NCc1cn2ccc(F)cc2n1)c1cccc2[nH]ncc12 [Compound 5, N-({7-fluoroimidazo[1,2-a]pyridin-2-yl}methyl)-1H-indazole-4-carboxamide] | 5.02
9 | Cc1ccn2cc(CNC(=O)c3cc(=O)n4ccccc4n3)nc2c1 [Compound 17, N-({7-methylimidazo[1,2-a]pyridin-2-yl}methyl)-4-oxo-4H-pyrido[1,2-a]pyrimidine-2-carboxamide] | 5.65
10 | O=C(NCc1cn2cc(CO)ccc2n1)c1cc(=O)n2ccccc2n1 [Compound 61, N-{[6-(hydroxymethyl)imidazo[1,2-a]pyridin-2-yl]methyl}-4-oxo-4H-pyrido[1,2-a]pyrimidine-2-carboxamide] | 6.16
11 | Cn1cnc(CNc2ccc3nc(CNC(=O)c4cccc5[nH]ncc45)cn3c2)c1 [Compound 33, N-[(6-{[(1-methyl-1H-imidazol-4-yl)methyl]amino}imidazo[1,2a]pyridin-2-yl)methyl]-1H-indazole-4-carboxamide] | 5.23
12 | Cc1ccc2nc(COC(=O)c3cccc4[nH]ncc34)cn2c1 [Compound 41, {6-methylimidazo[1,2-a]pyridin-2-yl}methyl 1H-indazole-4-carboxylate hydrochloride] | 5.87

same assay, conditions: 5 nM METTL3/14, 0.2 μM RNA substrate, 0.5 μM SAM; lower limit of the assay IC50=5 nM; Compounds 63-265; read-out: METTL3_14 RFMS IC50

Row | SMILES | pIC50
13 | Cc1ccc2nc(Cn3cc(-c4cccc5[nH]ncc45)nn3)cn2c1 [Compound 69, 4-[1-({6-methylimidazo[1,2-a]pyridin-2-yl}methyl)-1H-1,2,3-triazol-4-yl]-1H-indazole] | 5.87
14 | O=C(NCc1cn2cc(CNCC3CCCCC3)ccc2n1)c1cc(=O)c2cccc(Cl)c2o1 [Compound 185, 8-chloro-N-[(6-{[(cyclohexylmethyl)amino]methyl}imidazo[1,2-a]pyridin-2-yl)methyl]-4-oxo-4H-chromene-2-carboxamide] | 5.97
15 | CC1(C)CCOC1CNCc1ccc2nc(CNC(=O)c3cc(=O)n4ccccc4n3)cn2c1 (stereo not shown) [Compound 150, N-{[6-({[(3,3-dimethyloxolan-2-yl)methyl]amino}methyl)imidazo[1,2-a]pyridin-2-yl]methyl}-4-oxo-4H-pyrido[1,2-a] pyrimidine-2-carboxamide] | 7.52
16 | O=C(NCc1cn2cc(CNC[C@H](O)C(F)(F)F)ccc2n1)c1cc(=O)n2ccccc2n1 [Compound 125, 4-oxo-N-{[6-({[(2S)-3,3,3-trifluoro-2-hydroxypropyl]amino}methyl)imidazo[1,2-a]pyridin-2-yl]methyl}-4H-pyrido[1,2-a] pyrimidine-2-carboxamide] | 6.66
17 | CC(C)(F)CNCc1ccc2nc(CNC(=O)c3cc(=O)n4ccccc4n3)cn2c1 [Compound 202, N-[(6-{[(2-fluoro-2-methylpropyl)amino]methyl}imidazo[1,2-a]pyridin-2-yl)methyl]-4-oxo-4H-pyrido[1,2-a] pyrimidine-2-carboxamide] | 7.21
18 | CC1(C)CC1CNCc1ccc2nc(CNC(=O)c3cc(=O)n4ccccc4n3)cn2c1 (stereo not shown) [Compound 159, N-{[6-({[(2,2-dimethyl-cyclopropyl)methyl]amino}methyl)imidazo [1,2-a]pyridin-2-yl]methyl}-4-oxo-4H-pyrido [1,2-a]pyrimidine-2-carboxamide] | 7.71
19 | O=C(NCc1cn2cc(CN3CCC(F)(F)CC3)ccc2n1)c1cc(=O)n2ccccc2n1 [Compound 129, N-({6-[(4,4-difluoropiperidin-1-yl)methyl]imidazo [1,2-a]pyridin-2-yl}methyl)-4-oxo-4H-pyrido[1,2-a]pyrimidine-2-carboxamide] | 7.07
20 | CC(C)(C)C(=O)N1CCN(Cc2ccc3nc(CNC(=O)c4cc(=O)n5ccccc5n4)cn3c2)CC1 [Compound 166, N-[(6-{[4-(2,2-dimethylpropanoyl)piperazin-1-yl]methyl}imidazo[1,2-a]pyridin-2-yl)methyl]-4-oxo-4H-pyrido [1,2-a]pyrimidine-2-carboxamide] | 4.98
21 | C[C@@H]1COC[C@H](c2ccc3nc(CNC(=O)c4cc(=O)n5ccccc5n4)cn3c2)N1 [Example 233, N-({6-[(3S,5R)-5-methylmorpholin-3-yl]imidazo[1,2-a]pyridin-2-yl}methyl)-4-oxo-4H-pyrido[1,2-a]pyrimidine-2-carboxamide] | 5.86
22 | O=C(NCc1cn2cc(CNCC3COCCO3)ccc2n1)c1cc(=O)n2ccccc2n1 (stereo not shown) [Compound 108, N-{[6-({[(1,4-dioxan-2-yl)methyl]amino}methyl)imidazo [1,2-a]pyridin-2-yl]methyl}-4-oxo-4H-pyrido[1,2-a] pyrimidine-2-carboxamide] | 6.62
23 | Nc1ccc(C(=O)NCc2cn3cc(CNCC4CCCCC4)ccc3n2)cn1 [Compound 176, 6-amino-N-[(6-{[(cyclohexylmethyl)amino]methyl}imidazo[1,2-a]pyridin-2-yl)methyl] pyridine-3-carboxamide] | 6.04
24 | CC1(C)CCCN(Cc2ccc3nc(CNC(=O)c4cc(=O)n5ccccc5n4)cn3c2)C1 [Compound 141, N-({6-[(3,3-dimethylpiperidin-1-yl)methyl]imidazo[1,2-a]pyridin-2-yl}methyl)-4-oxo-4H-pyrido[1,2-a]pyrimidine-2-carboxamide] | 7.84
25 | O=C(NCc1cn2cc(CNCc3cccc(F)c3)ccc2n1)c1cc(=O)n2ccccc2n1 [Compound 79, N-{[6-({[(3-fluorophenyl)methyl]amino}methyl)imidazo[1,2-a]pyridin-2-yl]methyl}-4-oxo-4H-pyrido [1,2-a]pyrimidine-2-carboxamide] | 7.20
26 | COC(=O)C(NCc1ccc2nc(CNC(=O)c3cc(=O)n4ccccc4n3)cn2c1)C(C)C (stereo not shown) [Compound 123, methyl 3-methyl-2-[({2-[({4-oxo-4H-pyrido[1,2-a]pyrimidin-2-yl}formamido)methyl]imidazo [1,2-a]pyridin-6-yl}methyl)amino] butanoate] | 6.48
27 | CC1CCCN(Cc2ccc3nc(CNC(=O)c4cc(=O)n5ccccc5n4)cn3c2)C1 (stereo not shown) [Compound 139, N-({6-[(3-methylpiperidin-1-yl)methyl]imidazo[1,2-a]pyridin-2-yl}methyl)-4-oxo-4H-pyrido[1,2-a]pyrimidine-2-carboxamide] | 7.49
28 | O=C(NCc1cn2cc(CNCC3CCCCN3)ccc2n1)c1cc(=O)n2ccccc2n1 (stereo not shown) [Compound 240, 4-oxo-N-{[6-({[(piperidin-2-yl)methyl]amino}methyl)imidazo[1,2-a]pyridin-2-yl]methyl}-4H-pyrido[1,2-a]pyrimidine-2-carboxamide] | 6.59
29 | O=C(NCc1cn2cc(CNCCc3cccnc3)ccc2n1)c1cc(=O)n2ccccc2n1 [Compound 107, 4-oxo-N-{[6-({[2-(pyridin-3-yl)ethyl]amino}methyl)imidazo[1,2-a]pyridin-2-yl]methyl}-4H-pyrido[1,2-a]pyrimidine-2-carboxamide] | 6.84
30 | O=C(NCc1cn2cc(CN3CC(c4ccccn4)C3)ccc2n1)c1cc(=O)n2ccccc2n1 [Compound 134, 4-oxo-N-[(6-{[3-(pyridin-2-yl)azetidin-1-yl]methyl}imidazo[1,2-a]pyridin-2-yl)methyl]-4H-pyrido[1,2-a] pyrimidine-2-carboxamide] | 6.36
31 | O=C(NCc1cn2cc(CN3CCN(c4ccccc4)CC3)ccc2n1)c1cc(=O)n2ccccc2n1 [Compound 130, 4-oxo-N-({6-[(4-phenylpiperazin-1-yl)methyl]imidazo [1,2-a]pyridin-2-yl}methyl)-4H-pyrido[1,2-a] pyrimidine-2-carboxamide] | 6.69

same assay, conditions: 5 nM METTL3/14, 0.2 μM RNA substrate, 0.5 μM SAM; lower limit of the assay IC50=5 nM; Compounds 266-351; read-out: METTL3_14 RFMS IC50

Row | SMILES | pIC50
32 | CC1CNC(c2ccc3nc(CNC(=O)c4cc(=O)n5ccccc5n4)cn3c2)CO1 (stereo not shown) [Example 331] | 5.46
33 | O=C(NCc1cn2cc(CNC[C@@H]3C[C@H]4CC[C@@H]3C4)ccc2n1)c1cc(=O)n2ccccc2n1 [Compound 347, N-({6-[({[(1R,2R,4S)-bicyclo[2.2.1]heptan-2-yl]methyl}amino)methyl]imidazo[1,2-a]pyridin-2-yl}methyl)-4-oxo-4H-pyrido[1,2-a]pyrimidine-2-carboxamide] | 8.12

same assay, conditions: read-out: METTL3_14 RFMS IC50

Row | SMILES | pIC50
34 | O=C(NCc1cn2ccc(CNCCc3ccccc3)cc2n1)c1cc(=O)n2ccccc2n1 [Compound 243, 4-oxo-N-[(7-{[(2-phenylethyl)amino]methyl}imidazo[1,2-a]pyridin-2-yl)methyl]-4H-pyrido[1,2-a]pyrimidine-2-carboxamide] | 5.84
